Measurements reported in US8048825B2, “Haloalkylsulfonanilide derivatives or salt thereof, herbicide comprising the derivatives as active ingredient, and use of the herbicide” (Nihon Nohyaku Co., Ltd., priority 2006, dated 2011).

Tests used:
Assay type in all cases: in vivo
Lindernia procumbens [1] = assay: Herbicidal efficacy on paddy field weeds of pre-emergence stage (Pre), Test Example 1; conditions: 1000 g/ha as active ingredient, examined after 21 days
Method in brief: (§1)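 Clay-loam pots sown with Scirpus juncoides, covered with soil containing Lindernia procumbens seed, flooded to 5 cm. Next day formulated compound applied dropwise to water at 1000 g/ha a.i. Greenhouse-grown; growth inhibition versus untreated scored 0–5 after 21 days.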

Scirpus juncoides [2] = assay: as above; conditions: 1000 g/ha as active ingredient, examined after 21 days
Method in brief: as §1

Echinochloa crus-galli = assay: Herbicidal effect on paddy field weeds of post-emergence stage (Post), Test Example 2; conditions: one-leaf stage, 1000 g/ha as active ingredient, examined after 21 days
Method in brief: (§2)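 Scirpus juncoides and Echinochloa crus-galli sown in clay loam, with Lindernia procumbens seed in the soil cover, under 5 cm flooding in greenhouse. At one-leaf stage, 1000 g/ha active ingredient applied to pot water. Efficacy scored visually 0–5 against untreated plants at 21 days after treatment.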

Lindernia procumbens [3] = assay: as above; conditions: one-leaf stage, 1000 g/ha as active ingredient, examined after 21 days
Method in brief: as §2

Scirpus juncoides [4] = assay: as above; conditions: one-leaf stage, 1000 g/ha as active ingredient, examined after 21 days
Method in brief: as §2

CCC1(CC)CCN(Cc2ccccc2N(C(=O)OCC(C)C)S(=O)(=O)C(F)(F)F)C(=O)O1 [Compound 1-107]
Lindernia procumbens pre (herbicidal effect) (Lindernia procumbens [1]): 4 (90%-99% herbicidal effect, phytotoxicity) | Scirpus juncoides pre (herbicidal effect) (Scirpus juncoides [2]): 4 (90%-99% herbicidal effect, phytotoxicity) | Echinochloa crus-galli post (herbicidal effect) (Echinochloa crus-galli): 4 (90%-99% herbicidal effect, phytotoxicity) | Lindernia procumbens post (herbicidal effect) (Lindernia procumbens [3]): 4 (90%-99% herbicidal effect, phytotoxicity) | Scirpus juncoides post (herbicidal effect) (Scirpus juncoides [4]): 4 (90%-99% herbicidal effect, phytotoxicity)

CCOC(=O)N(c1ccccc1CN1CCC(C)(CC)OC1=O)S(=O)(=O)C(F)(F)F (stereo not shown) [Compound 1-71]
Lindernia procumbens pre (herbicidal effect) (Lindernia procumbens [1]): 4 (90%-99% herbicidal effect, phytotoxicity) | Scirpus juncoides pre (herbicidal effect) (Scirpus juncoides [2]): 4 (90%-99% herbicidal effect, phytotoxicity) | Echinochloa crus-galli post (herbicidal effect) (Echinochloa crus-galli): 4 (90%-99% herbicidal effect, phytotoxicity) | Lindernia procumbens post (herbicidal effect) (Lindernia procumbens [3]): 4 (90%-99% herbicidal effect, phytotoxicity) | Scirpus juncoides post (herbicidal effect) (Scirpus juncoides [4]): 4 (90%-99% herbicidal effect, phytotoxicity)

CCC1(C)CCN(Cc2ccccc2N(C(=O)OCC(C)C)S(=O)(=O)C(F)(F)F)C(=O)O1 (stereo not shown) [Compound 1-74]
Lindernia procumbens pre (herbicidal effect) (Lindernia procumbens [1]): 4 (90%-99% herbicidal effect, phytotoxicity) | Scirpus juncoides pre (herbicidal effect) (Scirpus juncoides [2]): 4 (90%-99% herbicidal effect, phytotoxicity) | Echinochloa crus-galli post (herbicidal effect) (Echinochloa crus-galli): 4 (90%-99% herbicidal effect, phytotoxicity) | Lindernia procumbens post (herbicidal effect) (Lindernia procumbens [3]): 4 (90%-99% herbicidal effect, phytotoxicity) | Scirpus juncoides post (herbicidal effect) (Scirpus juncoides [4]): 4 (90%-99% herbicidal effect, phytotoxicity)

COC(=O)N(c1ccccc1CN1CCC(C)(c2ccccc2C(F)(F)F)OC1=O)S(=O)(=O)C(F)(F)F (stereo not shown) [Compound 1-394]
Lindernia procumbens pre (herbicidal effect) (Lindernia procumbens [1]): 5 (100% herbicidal effect, phytotoxicity) | Scirpus juncoides pre (herbicidal effect) (Scirpus juncoides [2]): 5 (100% herbicidal effect, phytotoxicity) | Echinochloa crus-galli post (herbicidal effect) (Echinochloa crus-galli): 4 (90%-99% herbicidal effect, phytotoxicity) | Lindernia procumbens post (herbicidal effect) (Lindernia procumbens [3]): 5 (100% herbicidal effect, phytotoxicity) | Scirpus juncoides post (herbicidal effect) (Scirpus juncoides [4]): 4 (90%-99% herbicidal effect, phytotoxicity)

Cc1ccccc1C1CCN(Cc2ccccc2NS(=O)(=O)C(F)(F)F)C(=O)O1 (stereo not shown) [Compound 1-283]
Lindernia procumbens pre (herbicidal effect) (Lindernia procumbens [1]): 5 (100% herbicidal effect, phytotoxicity) | Scirpus juncoides pre (herbicidal effect) (Scirpus juncoides [2]): 5 (100% herbicidal effect, phytotoxicity) | Echinochloa crus-galli post (herbicidal effect) (Echinochloa crus-galli): 4 (90%-99% herbicidal effect, phytotoxicity) | Lindernia procumbens post (herbicidal effect) (Lindernia procumbens [3]): 5 (100% herbicidal effect, phytotoxicity) | Scirpus juncoides post (herbicidal effect) (Scirpus juncoides [4]): 4 (90%-99% herbicidal effect, phytotoxicity)

CCOC(=O)N(c1ccccc1CN1CCC(C)(C(C)(C)C)OC1=O)S(=O)(=O)C(F)(F)F (stereo not shown) [Compound 1-329]
Lindernia procumbens pre (herbicidal effect) (Lindernia procumbens [1]): 5 (100% herbicidal effect, phytotoxicity) | Scirpus juncoides pre (herbicidal effect) (Scirpus juncoides [2]): 5 (100% herbicidal effect, phytotoxicity) | Echinochloa crus-galli post (herbicidal effect) (Echinochloa crus-galli): 4 (90%-99% herbicidal effect, phytotoxicity) | Lindernia procumbens post (herbicidal effect) (Lindernia procumbens [3]): 5 (100% herbicidal effect, phytotoxicity) | Scirpus juncoides post (herbicidal effect) (Scirpus juncoides [4]): 4 (90%-99% herbicidal effect, phytotoxicity)

CC1(C(F)(F)F)CCN(Cc2ccccc2NS(=O)(=O)C(F)(F)F)C(=O)O1 (stereo not shown) [Compound 1-80]
Lindernia procumbens pre (herbicidal effect) (Lindernia procumbens [1]): 4 (90%-99% herbicidal effect, phytotoxicity) | Scirpus juncoides pre (herbicidal effect) (Scirpus juncoides [2]): 4 (90%-99% herbicidal effect, phytotoxicity) | Echinochloa crus-galli post (herbicidal effect) (Echinochloa crus-galli): 4 (90%-99% herbicidal effect, phytotoxicity) | Scirpus juncoides post (herbicidal effect) (Scirpus juncoides [4]): 4 (90%-99% herbicidal effect, phytotoxicity)

CCC1(C(F)(F)F)CCN(Cc2ccccc2N(C(=O)OCC(Cl)(Cl)Cl)S(=O)(=O)C(F)(F)F)C(=O)O1 (stereo not shown) [Compound 1-416]
Lindernia procumbens pre (herbicidal effect) (Lindernia procumbens [1]): 5 (100% herbicidal effect, phytotoxicity) | Scirpus juncoides pre (herbicidal effect) (Scirpus juncoides [2]): 5 (100% herbicidal effect, phytotoxicity) | Echinochloa crus-galli post (herbicidal effect) (Echinochloa crus-galli): 5 (100% herbicidal effect, phytotoxicity) | Scirpus juncoides post (herbicidal effect) (Scirpus juncoides [4]): 4 (90%-99% herbicidal effect, phytotoxicity)

COCN(c1ccccc1CN1CCC(c2ccccc2)(C2CC2)OC1=O)S(=O)(=O)C(F)(F)F (stereo not shown) [Compound 1-191]
Lindernia procumbens pre (herbicidal effect) (Lindernia procumbens [1]): 4 (90%-99% herbicidal effect, phytotoxicity) | Echinochloa crus-galli post (herbicidal effect) (Echinochloa crus-galli): 4 (90%-99% herbicidal effect, phytotoxicity)

CCOCN(c1ccccc1CN1CCC(c2ccccc2C(F)(F)F)OC1=O)S(=O)(=O)C(F)(F)F (stereo not shown) [Compound 1-303]
Lindernia procumbens pre (herbicidal effect) (Lindernia procumbens [1]): 5 (100% herbicidal effect, phytotoxicity) | Echinochloa crus-galli post (herbicidal effect) (Echinochloa crus-galli): 4 (90%-99% herbicidal effect, phytotoxicity) | Lindernia procumbens post (herbicidal effect) (Lindernia procumbens [3]): 5 (100% herbicidal effect, phytotoxicity) | Scirpus juncoides post (herbicidal effect) (Scirpus juncoides [4]): 4 (90%-99% herbicidal effect, phytotoxicity)

CC(C)COC(=O)N(c1ccccc1CN1CCCCOC1=S)S(=O)(=O)C(F)(F)F [2-17]
Scirpus juncoides pre (herbicidal effect) (Scirpus juncoides [2]): 4 (90%-99% herbicidal effect, phytotoxicity) | Echinochloa crus-galli post (herbicidal effect) (Echinochloa crus-galli): 4 (90%-99% herbicidal effect, phytotoxicity) | Scirpus juncoides post (herbicidal effect) (Scirpus juncoides [4]): 4 (90%-99% herbicidal effect, phytotoxicity)

CC(C)COC(=O)N(c1ccccc1CN1CCC(C)(C(F)(F)F)OC1=O)S(=O)(=O)C(F)(F)F (stereo not shown) [Compound 1-85]
Lindernia procumbens pre (herbicidal effect) (Lindernia procumbens [1]): 4 (90%-99% herbicidal effect, phytotoxicity) | Scirpus juncoides pre (herbicidal effect) (Scirpus juncoides [2]): 4 (90%-99% herbicidal effect, phytotoxicity) | Echinochloa crus-galli post (herbicidal effect) (Echinochloa crus-galli): 4 (90%-99% herbicidal effect, phytotoxicity) | Scirpus juncoides post (herbicidal effect) (Scirpus juncoides [4]): 4 (90%-99% herbicidal effect, phytotoxicity)

O=S(=O)(Nc1ccccc1CN1CCCCOC1=S)C(F)(F)F [2-12]
Lindernia procumbens pre (herbicidal effect) (Lindernia procumbens [1]): 4 (90%-99% herbicidal effect, phytotoxicity) | Scirpus juncoides pre (herbicidal effect) (Scirpus juncoides [2]): 4 (90%-99% herbicidal effect, phytotoxicity) | Echinochloa crus-galli post (herbicidal effect) (Echinochloa crus-galli): 4 (90%-99% herbicidal effect, phytotoxicity) | Scirpus juncoides post (herbicidal effect) (Scirpus juncoides [4]): 4 (90%-99% herbicidal effect, phytotoxicity)

CCOCN(c1ccccc1CN1CCC(c2ccccc2C)OC1=O)S(=O)(=O)C(F)(F)F (stereo not shown) [Compound 1-292]
Lindernia procumbens pre (herbicidal effect) (Lindernia procumbens [1]): 5 (100% herbicidal effect, phytotoxicity) | Echinochloa crus-galli post (herbicidal effect) (Echinochloa crus-galli): 4 (90%-99% herbicidal effect, phytotoxicity) | Lindernia procumbens post (herbicidal effect) (Lindernia procumbens [3]): 5 (100% herbicidal effect, phytotoxicity) | Scirpus juncoides post (herbicidal effect) (Scirpus juncoides [4]): 4 (90%-99% herbicidal effect, phytotoxicity)

CC(C)COC(=O)N(c1ccccc1CN1CCC(c2ccccc2)(C2CC2)OC1=O)S(=O)(=O)C(F)(F)F (stereo not shown) [Compound 1-188]
Lindernia procumbens pre (herbicidal effect) (Lindernia procumbens [1]): 4 (90%-99% herbicidal effect, phytotoxicity) | Scirpus juncoides pre (herbicidal effect) (Scirpus juncoides [2]): 4 (90%-99% herbicidal effect, phytotoxicity) | Echinochloa crus-galli post (herbicidal effect) (Echinochloa crus-galli): 4 (90%-99% herbicidal effect, phytotoxicity) | Scirpus juncoides post (herbicidal effect) (Scirpus juncoides [4]): 4 (90%-99% herbicidal effect, phytotoxicity)

CCOC(=O)N(c1ccccc1CN1CCC(c2ccccc2)OC1=O)S(=O)(=O)C(F)(F)F (stereo not shown) [Compound 1-241]
Lindernia procumbens pre (herbicidal effect) (Lindernia procumbens [1]): 5 (100% herbicidal effect, phytotoxicity) | Echinochloa crus-galli post (herbicidal effect) (Echinochloa crus-galli): 4 (90%-99% herbicidal effect, phytotoxicity) | Lindernia procumbens post (herbicidal effect) (Lindernia procumbens [3]): 5 (100% herbicidal effect, phytotoxicity) | Scirpus juncoides post (herbicidal effect) (Scirpus juncoides [4]): 4 (90%-99% herbicidal effect, phytotoxicity)

CCOCN(c1ccccc1CN1CCC(CC)(C(F)(F)F)OC1=O)S(=O)(=O)C(F)(F)F (stereo not shown) [Compound 1-100]
Lindernia procumbens pre (herbicidal effect) (Lindernia procumbens [1]): 5 (100% herbicidal effect, phytotoxicity) | Scirpus juncoides pre (herbicidal effect) (Scirpus juncoides [2]): 4 (90%-99% herbicidal effect, phytotoxicity) | Echinochloa crus-galli post (herbicidal effect) (Echinochloa crus-galli): 4 (90%-99% herbicidal effect, phytotoxicity) | Lindernia procumbens post (herbicidal effect) (Lindernia procumbens [3]): 4 (90%-99% herbicidal effect, phytotoxicity)

CCOC(=O)N(c1ccccc1CN1CCC(CC)(CC(C)C)OC1=O)S(=O)(=O)C(F)(F)F (stereo not shown) [Compound 1-419]
Lindernia procumbens pre (herbicidal effect) (Lindernia procumbens [1]): 5 (100% herbicidal effect, phytotoxicity) | Scirpus juncoides pre (herbicidal effect) (Scirpus juncoides [2]): 5 (100% herbicidal effect, phytotoxicity) | Lindernia procumbens post (herbicidal effect) (Lindernia procumbens [3]): 5 (100% herbicidal effect, phytotoxicity) | Scirpus juncoides post (herbicidal effect) (Scirpus juncoides [4]): 4 (90%-99% herbicidal effect, phytotoxicity)

O=C1OC(c2ccccc2)(c2ccccc2)CCN1Cc1ccccc1NS(=O)(=O)C(F)(F)F [Compound 1-217]
Lindernia procumbens pre (herbicidal effect) (Lindernia procumbens [1]): 4 (90%-99% herbicidal effect, phytotoxicity) | Scirpus juncoides pre (herbicidal effect) (Scirpus juncoides [2]): 4 (90%-99% herbicidal effect, phytotoxicity) | Lindernia procumbens post (herbicidal effect) (Lindernia procumbens [3]): 4 (90%-99% herbicidal effect, phytotoxicity) | Scirpus juncoides post (herbicidal effect) (Scirpus juncoides [4]): 4 (90%-99% herbicidal effect, phytotoxicity)

CCOC(=O)N(c1ccccc1CN1CCC(C)(c2ccccc2)OC1=O)S(=O)(=O)C(F)(F)F (stereo not shown) [Compound 1-162]
Lindernia procumbens pre (herbicidal effect) (Lindernia procumbens [1]): 4 (90%-99% herbicidal effect, phytotoxicity) | Scirpus juncoides pre (herbicidal effect) (Scirpus juncoides [2]): 4 (90%-99% herbicidal effect, phytotoxicity) | Lindernia procumbens post (herbicidal effect) (Lindernia procumbens [3]): 4 (90%-99% herbicidal effect, phytotoxicity) | Scirpus juncoides post (herbicidal effect) (Scirpus juncoides [4]): 4 (90%-99% herbicidal effect, phytotoxicity)

O=C1OC(c2ccccc2)(C2CCC2)CCN1Cc1ccccc1NS(=O)(=O)C(F)(F)F (stereo not shown) [Compound 1-206]
Lindernia procumbens pre (herbicidal effect) (Lindernia procumbens [1]): 4 (90%-99% herbicidal effect, phytotoxicity) | Scirpus juncoides pre (herbicidal effect) (Scirpus juncoides [2]): 4 (90%-99% herbicidal effect, phytotoxicity) | Lindernia procumbens post (herbicidal effect) (Lindernia procumbens [3]): 4 (90%-99% herbicidal effect, phytotoxicity) | Scirpus juncoides post (herbicidal effect) (Scirpus juncoides [4]): 4 (90%-99% herbicidal effect, phytotoxicity)

CCOC(=O)N(c1ccccc1CN1CCC(C(F)(F)F)(C(F)(F)F)OC1=O)S(=O)(=O)C(F)(F)F [Compound 1-340]
Lindernia procumbens pre (herbicidal effect) (Lindernia procumbens [1]): 5 (100% herbicidal effect, phytotoxicity) | Scirpus juncoides pre (herbicidal effect) (Scirpus juncoides [2]): 4 (90%-99% herbicidal effect, phytotoxicity) | Echinochloa crus-galli post (herbicidal effect) (Echinochloa crus-galli): 4 (90%-99% herbicidal effect, phytotoxicity) | Scirpus juncoides post (herbicidal effect) (Scirpus juncoides [4]): 4 (90%-99% herbicidal effect, phytotoxicity)
